Legend:
Klebsiella Pneumoniae = test: Agar dilution minimum inhibition concentration, aerobic growth base; format: cell-based; conditions: 37° C., 48 hours, mg antibiotic per liter
Propionibacterium = test: Agar dilution minimum inhibition concentration, anaerobic growth base; format: cell-based; conditions: anaerobic (nitrogen), 37° C., 48 hours, mg antibiotic per liter
Streptococcus Faccalis = test: Agar dilution minimum inhibition concentration, aerobic growth base; format: cell-based; conditions: 37° C., 48 hours, mg antibiotic per liter
Streptococcus Psittac = test: as above; format: cell-based; conditions: 37° C., 48 hours, mg antibiotic per liter
Actinomyces = conditions: anaerobic (nitrogen), 37° C., 48 hours, mg antibiotic per liter
Experimental: (§1) To measure the effectiveness of the our antimicrobial gauze, we tested an antibiotic containing soluble hemostatic gauze material made in accordance with the present invention against the same antibiotic alone. We prepared a growth base for anaeroboic bacteria by mixing 20 grams glucose, 5 grams NaCl, 10 grams protein base, 5 grams yeast powder, 3 grams soluble starch, 20 grams agar and 0.4 grams amino acid. These materials were dissolved in 150 ml distilled water to form a liver paste solution. Then we added 1000 ml. water, adjusted the Ph to 7.2 and autoclaved the material. We prepared another growth base for aerobic bacteria by combining 10 grams beef paste, 10 grams protein base, 3 grams soluble starch, 5 grams NaCl and 20 grams agar in distilled water. Then we added 1000 ml. water, adjusted the Ph to 7.2 and autoclaved the material. We also prepared a series of solutions of the antibiotic chlindamycin in a Ph7.8 phospharese solution. The solutions were: 1280 mg antibiotic/L, 640 mg/L, 320 mg/l, 160 mg/L, 80 mg/L, 40 mg/L, 20 mg/l, 10 mg/L, 5 mg/L, 2.5 mg/L and 1.25 mg/L. We then added 2 ml of each of the diluted antibiotic solutions into a petri dish. Next we added 18 ml of warm (50° C.) autoclaved bacteria growth base prepared as described above for the type of bacteria (anaerobic or aerobic) to be tested to petri dishes to make growth plates. At that point we had growth plates with final antibiotic concentrations of 128, 64, 32, 16, 8, 4, 2, 1, 0.5, 0.25, and 0.125 mg antibiotic per liter.
(§2) We prepared a second series of growth bases with anti-microbial soluble hemostatic gauze to which the antibiotic chlindamycin had been linked. The gauze was prepared in accordance with the following steps.

Peptostrepococcus = conditions: anaerobic (nitrogen), 37° C., 48 hours, mg antibiotic per liter
Experimental: as §1, §2

Bacteroides Vulgatus = conditions: anaerobic (nitrogen), 37° C., 48 hours, mg antibiotic per liter
Experimental: as §1, §2

Bacillus Pyocyaneus = test: Agar dilution minimum inhibition concentration, aerobic growth base; format: cell-based; conditions: 37° C., 48 hours, mg antibiotic per liter
[1] = test system: Bacillus Canalis Capsulatus; test: as above; format: cell-based; conditions: 37° C., 48 hours, mg antibiotic per liter
Fusobacterium Nuleatum = test: Agar dilution minimum inhibition concentration, anaerobic growth base; format: cell-based; conditions: anaerobic (nitrogen), 37° C., 48 hours, mg antibiotic per liter
[2] = test system: Bifidobacterium Adolescents; test: as above; format: cell-based; conditions: anaerobic (nitrogen), 37° C., 48 hours, mg antibiotic per liter
Staphylococcus Aureus = test: Agar dilution minimum inhibition concentration, aerobic growth base; format: cell-based; conditions: 37° C., 48 hours, mg antibiotic per liter
Bacteroides Fragilis = test: Agar dilution minimum inhibition concentration, anaerobic growth base; format: cell-based; conditions: anaerobic (nitrogen), 37° C., 48 hours, mg antibiotic per liter
Pseudomonas Aeruginosa = test: Agar dilution minimum inhibition concentration, aerobic growth base; format: cell-based; conditions: 37° C., 48 hours, mg antibiotic per liter
Citrobacter Sp. = test: as above; format: cell-based; conditions: 37° C., 48 hours, mg antibiotic per liter
Bifidobacterium Longum = test: Agar dilution minimum inhibition concentration, anaerobic growth base; format: cell-based; conditions: anaerobic (nitrogen), 37° C., 48 hours, mg antibiotic per liter
Streptococcus Gamma = test: Agar dilution minimum inhibition concentration, aerobic growth base; format: cell-based; conditions: 37° C., 48 hours, mg antibiotic per liter
Bacillus Coli Similis = test: as above; format: cell-based; conditions: 37° C., 48 hours, mg antibiotic per liter
[3] = test system: Staphylococcus Epidermidis; test: as above; format: cell-based; conditions: 37° C., 48 hours, mg antibiotic per liter
Bacillus Coli Immobilis = test: as above; format: cell-based; conditions: 37° C., 48 hours, mg antibiotic per liter
Bacteroides Ovatus = test: Agar dilution minimum inhibition concentration, anaerobic growth base; format: cell-based; conditions: anaerobic (nitrogen), 37° C., 48 hours, mg antibiotic per liter
[4] = test system: Lactobacillus Acidophilus; test: as above; format: cell-based; conditions: anaerobic (nitrogen), 37° C., 48 hours, mg antibiotic per liter
Serratia = test: Agar dilution minimum inhibition concentration, aerobic growth base; format: cell-based; conditions: 37° C., 48 hours, mg antibiotic per liter
Bifidobacterium Infantis = test: Agar dilution minimum inhibition concentration, anaerobic growth base; format: cell-based; conditions: anaerobic (nitrogen), 37° C., 48 hours, mg antibiotic per liter
Clostridium Perfringens = format: cell-based; conditions: anaerobic (nitrogen), 37° C., 48 hours, mg antibiotic per liter
Lactobacillus Plantarum = test: Agar dilution minimum inhibition concentration, anaerobic growth base; format: cell-based; conditions: anaerobic (nitrogen), 37° C., 48 hours, mg antibiotic per liter

CCC[C@@H]1C[C@@H](C(=O)N[C@@H]([C@H]2O[C@H](SC)[C@H](O)[C@@H](O)[C@H]2O)[C@H](C)Cl)N(C)C1 [Chlindamycin, chlindamycin]
Minimum Inhibited Concentration (Klebsiella Pneumoniae): 32 mg/L | Minimum Inhibited Concentration (Propionibacterium): 0.25 mg/L | Minimum Inhibited Concentration (Streptococcus Faccalis): 1 mg/L | Minimum Inhibited Concentration (Streptococcus Psittac): 1 mg/L | Minimum Inhibited Concentration (Actinomyces): 0.125 mg/L | Minimum Inhibited Concentration (Peptostrepococcus): 0.125 mg/L | Minimum Inhibited Concentration (Bacteroides Vulgatus): 0.125 mg/L | Minimum Inhibited Concentration (Bacillus Pyocyaneus): 128 mg/L | Minimum Inhibited Concentration [1]: 64 mg/L | Minimum Inhibited Concentration (Fusobacterium Nuleatum): 4 mg/L | Minimum Inhibited Concentration [2]: 16 mg/L | Minimum Inhibited Concentration (Staphylococcus Aureus): 1 mg/L | Minimum Inhibited Concentration (Bacteroides Fragilis): 0.5 mg/L | Minimum Inhibited Concentration (Pseudomonas Aeruginosa): 128 mg/L | Minimum Inhibited Concentration (Citrobacter Sp.): 64 mg/L | Minimum Inhibited Concentration (Bifidobacterium Longum): 64 mg/L | Minimum Inhibited Concentration (Streptococcus Gamma): 1 mg/L | Minimum Inhibited Concentration (Bacillus Coli Similis): 128 mg/L | Minimum Inhibited Concentration [3]: 0.5 mg/L | Minimum Inhibited Concentration (Bacillus Coli Immobilis): 128 mg/L | Minimum Inhibited Concentration (Bacteroides Ovatus): 2 mg/L | Minimum Inhibited Concentration [4]: 32 mg/L | Minimum Inhibited Concentration (Serratia): 32 mg/L | Minimum Inhibited Concentration (Bifidobacterium Infantis): 64 mg/L | Minimum Inhibited Concentration (Clostridium Perfringens): 0.125 mg/L | Minimum Inhibited Concentration (Lactobacillus Plantarum): 64 mg/L

Reference: patent US20030118631A1, “Anti-microbial soluble hemostatic gauze and method of making same” (priority 2001, published 2003)
